What was measured:
[1] = test system: chymotryptic-like activity of isolated 20S constitutive proteasome vs immunoproteasome; experiment: Enzyme kinetic assay with isolated 20S proteasome preps, EC50 ratio of CT-L activity (20S ratio); format: biochemical; conditions: constitutive proteasome to immunoproteasome, >1 = prefers immunoproteasome
From the text: Enzyme kinetic assays such as those disclosed in U.S. application Ser. No. 09/569,748, Example 2 and Stein et al., Biochem. (1996), 35, 3899-3908 use isolated 20S proteasome preps with greater than 90% constitutive proteasome subunits or immunoproteasome subunits. The inhibitory preference of the molecule is then based on the EC50 ratio of the chymotryptic-like activity of the constitutive proteasome to that of the immunoproteasome (20S ratio).

[2] = molecular target: T1, 26S proteasome CT-L activity in lysate of HT29 (constitutive) vs Sultan/Thp1 (immunoproteasome) cells (Homo sapiens, UniProt P28062+P28074); experiment: CT-L EC50 with 26S proteasome in cell lysate (Lysate ratio); format: biochemical; conditions: HT29 lysate to Sultan/Thp1 lysate, >1 = prefers immunoproteasome
T1 construct: using 26S proteasome in the context of a cell lysate; endogenous in cells; host or cells: HT29 lysate (constitutive); Sultan or THP1 lysate (immunoproteasome)
T1 sequence (P28074 60-263): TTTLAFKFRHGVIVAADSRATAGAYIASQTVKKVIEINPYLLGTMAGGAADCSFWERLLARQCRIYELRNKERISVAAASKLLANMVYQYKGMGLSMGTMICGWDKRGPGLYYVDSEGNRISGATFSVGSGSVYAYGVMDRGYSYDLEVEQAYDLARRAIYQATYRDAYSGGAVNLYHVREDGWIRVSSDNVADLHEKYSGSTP
T1 sequence (P28062 73-276): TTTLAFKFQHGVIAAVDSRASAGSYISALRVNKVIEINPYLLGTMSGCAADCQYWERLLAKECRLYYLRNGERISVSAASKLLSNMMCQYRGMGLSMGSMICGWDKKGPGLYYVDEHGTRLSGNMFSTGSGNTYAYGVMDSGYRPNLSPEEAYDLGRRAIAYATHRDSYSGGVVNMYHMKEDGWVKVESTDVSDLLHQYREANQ
Method: Alternatively, the CT-L EC50 of a compound can be determined using 26S proteasome in the context of a cell lysate. Compound is added to lysate generated from cells that either predominantly express constitutive proteasome (e.g., HT29) or immunoproteasome (e.g., THP1). Again, the inhibitory preference is then based on the EC50 ratio (Lysate ratio).

[3] = molecular target: T2, 20S proteasome subunit β5 vs immunoproteasome subunit LMP7 in RPMI-8226 cells (Homo sapiens, UniProt P28062+P28074); experiment: ELISA-based active site assay in RPMI-8226 cells (ELISA ratio); format: cell-based; conditions: EC50 ratio with β5 antibody to LMP7 antibody, RPMI-8226 cells; >1 = prefers immunoproteasome
T2 construct: Cells expressing approximately equivalent amounts of immuno- and constitutive proteasome (e.g., RPMI-8226) are treated with test compound; endogenous in cells; host or cells: RPMI-8226 multiple myeloma cells
T2 sequence (P28074 60-263): T1 sequence (P28074 60-263)
T2 sequence (P28062 73-276): T1 sequence (P28062 73-276)
Method: Lastly, a more cell-based approach can be utilized. Cells expressing approximately equivalent amounts of immuno- and constitutive proteasome (e.g., RPMI-8226) are treated with test compound, followed by the method for determining the activity of a proteasome inhibitor as described in application Ser. No. 11/254,541. The ratio of the EC50 generated in the ELISA-based assay using β5 antibody and LMP7 antibodies (ELISA ratio) provides the basis for determining the inhibitory preference of the test compound. […] In all three assays, a ratio of less than one denotes the molecule inhibits the CT-L activity of the constitutive proteasome better than that of the immunoproteasome. Ratios greater than one signifies the molecule inhibits chymotrypsin-like activity of the immunoproteasome better than that of the constitutive proteasome.
A suitable ELISA assay may be found in U.S. patent application Ser. No. 11/254,541, incorporated herein in its entirety. Briefly, RPMI-8226 cells were treated with 0.1 nM to 1 μM of proteasome Inhibitor B. The samples were then washed with phosphate-buffered saline (PBS) and lysed in hypotonic buffer (20 mM Tris pH 8, 5 mM EDTA) (Tris-HCl and EDTA are available from Teknova, Inc., Hollister, Calif.). Cellular debris was removed by centrifugation at 14,000 rpm in a microfuge (4° C.) for 2 min. The supernatant was transferred to a fresh tube, snap frozen in liquid nitrogen and stored at −80° C. After thawing on ice, the samples (30 μl for assays run in triplicate) were treated with 500 nM of Inhibitor A for 1 hr at room temperature. Following treatment with Inhibitor A, the lysate was denatured by addition of seven volumes of 1% SDS (210 μl) (available from Bio-Rad, Hercules, Calif.) and heating at 99° C. with vigorous shaking for 5 min. The sample was allowed to cool and two volumes (60 μl) of 10% Triton X-100 (available from Bio-Rad, Hercules, Calif.) was added.
Streptavidin sepharose beads (6.5 μl/well) (available from Amersham Biosciences, Piscataway, N.J.), were washed three times with 1 ml PBS (available from Mediatech, Inc., Herndon, Va.) in a microcentrifuge tube. The beads were resuspended in ELISA wash/block buffer (PBS+0.1% Tween 20+1% bovine serum albumin; 20 μl/well) and transferred to the wells of a 96 well filter plate (BSA is available from Sigma, St. Louis, Mo.; Tween is available from Calbiochem, San Diego, Calif.). Denatured whole blood or PBMC lysates that were treated with Inhibitor 3 were added to the filter plate wells containing the streptavidin sepharose beads (each sample assayed in triplicate) and incubated for 1 hr at room temperature with shaking (MultiScreen-DV Opaque Plates with low protein binding durapore membrane; available from Millipore, Billerica, Mass.). The unbound material was removed by gentle filtration and the beads were washed six times with ELISA wash/block buffer (200 μl each).
Primary antibody to human 20S proteasome subunit (35 (rabbit polyclonal antibody; available from Biomol, Plymouth Meeting, Pa.) or human 20S immunoproteasome subunit LMP7 (rabbit polyclonal antibody; available from Affinity BioReagents, Golden, Colo.) was diluted 1:1000 in ELISA wash/block buffer, added to the beads (100 μl/well), and incubated for 1 hr at room temperature on an orbital shaker. The beads were washed six times with ELISA wash/block buffer with gentle filtration. Secondary antibody treatment (1:5000) and washing are as described for primary antibody (goat anti-rabbit antibody-HRP conjugate; available from Biosource, Camarillo, Calif.). The beads were then resuspended in 100 μl chemiluminescent detection reagent (Super Signal Pico Chemiluminescent Substrate™; available from Pierce, Rockford, Ill.) and luminescence was read on a Tecan plate reader. […]

SMILES	20 S ratio (const:immuno) [1]	Lysate ratio (HT29:Sultan/Thp1) [2]	Elisa ratio (beta5:LMP7) [3]
CC[C@H](C)[C@@H](NC(=O)OCc1ccccc1)C(=O)N[C@@H](Cc1ccccc1)C(=O)N[C@@H](Cc1ccccc1)C(=O)C1(C)CO1 (stereo partly drawn)	>5.0	>3.0	>2.0
CC(C)C[C@@H](NC(=O)OCc1ccccc1)C(=O)N[C@@H](Cc1c[nH]c2ccccc12)C(=O)N[C@@H](Cc1ccccc1)C(=O)C1(C)CO1 (stereo partly drawn)	>5.0	>5.0	>5.0
CC1(C(=O)[C@H](Cc2ccccc2)NC(=O)[C@H](Cc2c[nH]c3ccccc23)NC(=O)[C@H](CC(N)=O)NC(=O)OCc2ccccc2)CO1 (stereo partly drawn)	>1.0	>5.0	>1.0
CC(NC(=O)OCc1ccccc1)C(=O)N[C@@H](Cc1ccc(C(F)(F)F)cc1)C(=O)N[C@@H](Cc1ccccc1)C(=O)C1(C)CO1 (stereo partly drawn)	>5.0	>2.0	>1.0
CC(C)CC(NC(=O)OCc1ccccc1)C(=O)N[C@@H](CC(C)C)C(=O)N[C@@H](CC(C)C)C(=O)C1(C)CO1 (stereo partly drawn)	<0.5	<0.5	<0.5
C[C@@H](NC(=O)OCc1ccccc1)C(=O)N[C@@H](Cc1c[nH]c2ccccc12)C(=O)N[C@@H](Cc1ccccc1)C(=O)C1(C)CO1 (stereo partly drawn)	>5.0	>5.0	>5.0
CC(NC(=O)OCc1ccccc1)C(=O)N[C@@H](Cc1ccccc1)C(=O)N[C@@H](Cc1ccc(O)cc1)C(=O)C1(C)CO1 (stereo partly drawn)	>5.0	>3.0	>3.0
CC(NC(=O)OCc1ccccc1)C(=O)N[C@@H](Cc1cccs1)C(=O)N[C@@H](Cc1ccccc1)C(=O)C1(C)CO1 (stereo partly drawn)	>2.0	>2.0	>3.0
C[C@H](NC(=O)OCc1ccccc1)C(=O)N[C@@H](Cc1cn(C)c2ccccc12)C(=O)N[C@@H](Cc1ccccc1)C(=O)C1(C)CO1 (stereo partly drawn)	>1.0	>1.0	>3.0
CC[C@@H](NC(=O)OCc1ccccc1)C(=O)N[C@@H](Cc1c[nH]c2ccccc12)C(=O)N[C@@H](Cc1ccccc1)C(=O)C1(C)CO1 (stereo partly drawn) [drawing 84]	>5.0	>3.0	>5.0
COc1ccc(C[C@H](NC(=O)C(C)NC(=O)OCc2ccccc2)C(=O)N[C@@H](Cc2ccccc2)C(=O)C2(C)CO2)cc1 (stereo partly drawn) [drawing 86]	>2.0	>2.0	>5.0
C[C@@H](NC(=O)OCc1ccccc1)C(=O)N[C@@H](Cc1c[nH]c2ccccc12)C(=O)N[C@@H](Cc1ccc(O)cc1)C(=O)C1(C)CO1 (stereo partly drawn)	>5.0	>5.0	>3.0
CC[C@H](C)C(NC(=O)OCc1ccccc1)C(=O)N[C@@H](Cc1c[nH]c2ccccc12)C(=O)N[C@@H](Cc1ccccc1)C(=O)C1(C)CO1 (stereo partly drawn)	>5.0	>3.0	>5.0
CC(C)C[C@H](NC(=O)OCc1ccccc1)C(=O)N[C@@H](Cc1ccccc1)C(=O)N[C@@H](CC(C)C)C(=O)C1(C)CO1 (stereo partly drawn)	<0.5	<0.5	<0.5
COc1ccc(C[C@H](NC(=O)C(C)NC(=O)OCc2ccccc2)C(=O)N[C@@H](Cc2ccc(O)cc2)C(=O)C2(C)CO2)cc1 (stereo partly drawn) [drawing 65]	>5.0	>2.0	>5.0
CC[C@@H](NC(=O)OCc1ccccc1)C(=O)N[C@@H](Cc1ccccc1)C(=O)N[C@@H](Cc1ccccc1)C(=O)C1(C)CO1 (stereo partly drawn)	>5.0	>5.0	>3.0
CC(NC(=O)OCc1ccccc1)C(=O)N[C@@H](Cc1c[nH]c2ccccc12)C(=O)N[C@@H](Cc1ccc(O)cc1)C(=O)C1(C)CO1 (stereo partly drawn)	>3.0	>3.0	>5.0
CC1(C(=O)[C@H](Cc2ccccc2)NC(=O)[C@H](Cc2c[nH]c3ccccc23)NC(=O)C(CSCc2ccccc2)NC(=O)OCc2ccccc2)CO1 (stereo partly drawn)	>2.0	>3.0	>1.0
COc1ccc(C[C@H](NC(=O)C(C)NC(=O)OCc2ccccc2)C(=O)N[C@@H](Cc2ccc(O)cc2)C(=O)C2(C)CO2)cc1 (stereo partly drawn) [drawing 67]	>5.0	>3.0	>5.0
CC(NC(=O)OCc1ccccc1)C(=O)N[C@@H](Cc1ccccc1)C(=O)N[C@H](C(=O)C1(C)CO1)c1ccccc1 (stereo partly drawn)	>1.0	>5.0	>1.0
CC1(C(=O)[C@H](Cc2ccccc2)NC(=O)[C@H](Cc2c[nH]c3ccccc23)NC(=O)[C@@H](NC(=O)OCc2ccccc2)c2ccccc2)CO1 (stereo partly drawn)	>3.0	>3.0	>1.0
CC1(C(=O)[C@H](Cc2ccccc2)NC(=O)[C@H](Cc2c[nH]c3ccccc23)NC(=O)[C@H](CCC(N)=O)NC(=O)OCc2ccccc2)CO1 (stereo partly drawn)	>1.0	>3.0	>1.0
CC1(C(=O)[C@H](Cc2ccccc2)NC(=O)[C@H](Cc2ccccc2)NC(=O)C(CC(=O)O)NC(=O)OCc2ccccc2)CO1 (stereo partly drawn)	>3.0	>3.0	>2.0
CC(C)CC(NC(=O)OCc1ccccc1)C(=O)N[C@@H](CC(C)C)C(=O)N[C@@H](Cc1ccccc1)C(=O)C1(C)CO1 (stereo partly drawn)	<0.5	<1.0	<0.5

Source: patent publication US8609654B1, “Compounds for enzyme inhibition” (Onyx Therapeutics, Inc., priority 2006, dated 2013)
